This series can be described thus: TIMS collisional cross section (CCS, N2) of the lipid ion; higher = larger ion cross section. The settings on record: ionization mode: negative, one isomer drawn. As to the method:
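Lipid extracts of human plasma (NIST SRM 1950), mouse liver or HeLa cells were separated by nanoflow C18 LC (30 min gradient) and analysed by TIMS-PASEF on a timsTOF Pro. Ion mobility was calibrated with the Agilent tuning mix (negative mode ions) and converted to collisional cross sections (Mason–Schamp, N2).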

± gives the standard deviation of the averaged measurements.
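Further: lipids from MTBE extraction, five replicate injections per sample, 100 ms TIMS ramp spanning 0.6–1.95 Vs/cm², lipid identity assigned from PASEF MS/MS spectra.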

`CCCCC/C=C\C/C=C\C/C=C\C/C=C\CCCCCC(=O)O[C@H](COC(=O)CCCCCCC/C=C\C/C=C\CCCCC)COP(=O)([O-])OCC[N+](C)(C)C` [PC 18:2_22:4@]: the “TIMS collisional cross section” value (sample type: Human plasma, ion (formula + adduct): [C48H84NO8P-CH3] 1-) worked out at 303.8 Å². As for `CCCCCCCCCCCCCCCCCC(=O)OC[C@@H](O)COP(=O)(O)OC1C(O)C(O)C(O)[C@@H](O)C1O` (some centres undefined) [LPI 18:0_0:0], the “TIMS collisional cross section” value (sample type: Human plasma, ion (formula + adduct): [C27H53O12P-H] 1-) is recorded as 239.4 Å². With `CCCCC/C=C\C[C@H](O)/C=C/C=C\C/C=C\CCCC(=O)O[C@H](CO/C=C\CCCCCC/C=C\CCCCCCCC)COP(=O)(O)OCCN` [Oxidized PE 18:1@_20:4], the “TIMS collisional cross section” value (sample type: Human plasma, ion (formula + adduct): [C43H76NO8P-H] 1-) is 279.7 Å². `CC/C=C\C/C=C\CC(O)/C=C/C=C\C/C=C\C/C=C\CCC(=O)O[C@H](COC(=O)CCCCCCCCCCCCCCCCC)COP(=O)(O)OCCN` (some centres undefined) [Oxidized PE 18:0@_22:6]: the “TIMS collisional cross section” value (sample type: Human plasma, ion (formula + adduct): [C45H78NO9P-H] 1-) came to 285.8 Å². Turning to `CCCCC/C=C\C/C=C\C/C=C\CCCCCCC(=O)OC[C@@H](O)COP(=O)(O)OC1[C@H](O)[C@H](O)C(O)[C@H](O)[C@H]1O` (some centres undefined) [LPI 20:3_0:0], the “TIMS collisional cross section” value (sample type: Human plasma, ion (formula + adduct): [C29H51O12P-H] 1-) was determined as 240.4 Å². For the compound `CCCCCCCCCCCCCCCCC(=O)OC[C@H](COP(=O)([O-])OCC[N+](C)(C)C)OC(C)=O` [PC 17:0@_2:0], the “TIMS collisional cross section” value (sample type: Human plasma, ion (formula + adduct): [C27H54NO8P-H] 1-) worked out at 239 ± 3 Å². As for `CCCCCCCCCCCCCCCCCCOC[C@H](COP(=O)(O)OCCN)OC(=O)CCCCCCCCCCCCCCCC` [PE O- 18:0_17:0], the “TIMS collisional cross section” value (sample type: Mouse Liver, ion (formula + adduct): [C40H82NO7P-CH3] 1-) is on record as 267.9 Å².

With `CCCCC/C=C\C/C=C\C/C=C\C/C=C\CCCCCC(=O)O[C@H](CO/C=C\CCCCCCCCCCCCCC)COP(=O)([O-])OCC[N+](C)(C)C` [PC P- 16:0@_22:4], the “TIMS collisional cross section” value (sample type: Human plasma, ion (formula + adduct): [C46H84NO7P-CH3] 1-) turned out to be 282.5 Å². As for `CCCCC/C=C\C/C=C\CCCCCCCC(=O)O[C@H](CO/C=C\CCCCCCCCCCCCCCCCCC)COP(=O)([O-])OCC[N+](C)(C)C` [PC P- 20:0@_18:2], the “TIMS collisional cross section” value (sample type: Human plasma, ion (formula + adduct): [C46H88NO7P-CH3] 1-) was determined as 285.4 Å². `CC/C=C\C/C=C\C/C=C\C/C=C\C/C=C\C/C=C\CCC(=O)OC[C@@H](O)COP(=O)(O)OCCN` [LPE 22:6_0:0]: under “sample type: Human plasma, ion (formula + adduct): [C27H44NO7P-H] 1-”, the “TIMS collisional cross section” value is on record as 222.4 Å². With `CCCCC/C=C\C/C=C\CCCCCCCC(=O)O[C@H](COCCCCCCCCCCCCCC)COP(=O)([O-])OCC[N+](C)(C)C` [PC O- 14:0@_18:2], the “TIMS collisional cross section” value (sample type: Human plasma, ion (formula + adduct): [C40H78NO7P-CH3] 1-) is on record as 265.6 Å². Consider `CCCCC/C=C\C/C=C\C/C=C\C/C=C\CCCCCC(=O)OC[C@@H](O)COP(=O)([O-])OCC[N+](C)(C)C` [LPC 22:4_0:0], for which the “TIMS collisional cross section” value (sample type: Human plasma, ion (formula + adduct): [C30H54NO7P+HCOO] 1-) is listed as 249 ± 0.42 Å²; the “TIMS collisional cross section” value (sample type: Human plasma, ion (formula + adduct): [C30H54NO7P-CH3] 1-) was determined as 231.5 Å²; the “TIMS collisional cross section” value (sample type: Mouse Liver, ion (formula + adduct): [C30H54NO7P+HCOO] 1-) turned out to be 248.7 Å². For the compound `CCCCCCCCCCCCCCCC(=O)O[C@H](COC(=O)CCCCCCCCCCCCCC)COP(=O)([O-])OCC[N+](C)(C)C` [PC 15:0_16:0@], the “TIMS collisional cross section” value runs as follows: (sample type: Human plasma, ion (formula + adduct): [C39H78NO8P+HCOO] 1-) 284.9 Å²; (sample type: Human plasma, ion (formula + adduct): [C39H78NO8P+OAcO] 1-) 290.8 Å². As for `CCCCCC/C=C\CCCCCCCC(=O)OCC(COP(=O)(O)OCCN)OC(=O)CCCCCCC/C=C\CCCCCC` (centres undefined) [PE 16:1_16:1], where the note is “sample type: Mouse Liver, ion (formula + adduct): [C37H70NO8P-H] 1-”, the “TIMS collisional cross section” value was determined as 259.3 Å². Take `CC/C=C\C/C=C\C/C=C\C/C=C\C/C=C\C/C=C\CCC(=O)O[C@H](COC(=O)CCCCCCC/C=C\C/C=C\CCCCC)COP(=O)(O)OC[C@@H](O)CO` [PG 18:2_22:6]: the “TIMS collisional cross section” value (sample type: Mouse Liver, ion (formula + adduct): [C46H75O10P-H] 1-) is recorded as 287.5 Å². For `CC/C=C\C/C=C\C/C=C\C/C=C\C/C=C\CCCC(=O)OC[C@H](COP(=O)(O)OCCN)OC(=O)CCCCCCC/C=C\CCCCCCCC` [PE 20:5_18:1], the “TIMS collisional cross section” value is, setting by setting: (sample type: Human plasma, ion (formula + adduct): [C43H74NO8P-H] 1-) 274.5 Å²; (sample type: Mouse Liver, ion (formula + adduct): [C43H74NO8P-H] 1-) 273.9 Å². With `CCCCC/C=C\C/C=C\C/C=C\C/C=C\CCCC(=O)O[C@H](COCCCCCCCCCCCCCC)COP(=O)([O-])OCC[N+](C)(C)C` [PC O- 14:0@_20:4], the “TIMS collisional cross section” value (sample type: Human plasma, ion (formula + adduct): [C42H78NO7P-CH3] 1-) was 270.6 Å². For the compound `CC/C=C\C/C=C\C/C=C\C/C=C\C/C=C\C/C=C\CCC(=O)OC[C@H](COP(=O)(O)OCCN)OC(=O)CCCCCCCCCCCCC` [PE 22:6_14:0], where the note is “sample type: Mouse Liver, ion (formula + adduct): [C41H70NO8P-H] 1-”, the “TIMS collisional cross section” value was 268.2 Å². Take `CCCCC/C=C\C/C=C\C/C=C\C/C=C\CCCCCC(=O)O[C@H](CO/C=C\CCCCCCCCCCCCCCCC)COP(=O)(O)OCCN` [PE P- 18:0_22:4]: for the setting “sample type: Mouse Liver, ion (formula + adduct): [C45H82NO7P-H] 1-”, the “TIMS collisional cross section” value came out at 281.9 Å². Regarding `CC/C=C\C/C=C\C/C=C\C/C=C\C/C=C\C/C=C\CCC(=O)O[C@H](COC(=O)CCCCCCCCCCCCCCCCC)COP(=O)([O-])OCC[N+](C)(C)C` [PC 18:0_22:6], the “TIMS collisional cross section” value is given as 303.4 Å² (sample type: Human plasma, ion (formula + adduct): [C48H84NO8P+HCOO] 1-) and 302.2 Å² (sample type: Mouse Liver, ion (formula + adduct): [C48H84NO8P+HCOO] 1-).

Consider `CCCCC/C=C\C/C=C\C/C=C\C/C=C\C/C=C\CCC(=O)O[C@H](COC(=O)CCCCCCCCCCCCCCC)COP(=O)([O-])OCC[N+](C)(C)C` [PC 16:0_22:5], for which the “TIMS collisional cross section” value (sample type: Mouse Liver, ion (formula + adduct): [C46H82NO8P+HCOO] 1-) was found to be 298.9 Å².

Turning to `CCCCC/C=C\C=C/CCCCCCCCC(=O)O[C@H](COC(=O)CCCCCCCCCCCCCCCCC)COP(=O)([O-])OCC[N+](C)(C)C` [PC 18:0_18:2], the “TIMS collisional cross section” value runs as follows: (sample type: Human plasma, ion (formula + adduct): [C44H84NO8P+HCOO] 1-) 296.5 ± 0.35 Å²; (sample type: Mouse Liver, ion (formula + adduct): [C44H84NO8P+HCOO] 1-) 295.9 ± 0.17 Å².

For the compound `CC/C=C\C/C=C\C/C=C\C/C=C\C/C=C\C/C=C\CCC(=O)OC[C@H](COP(=O)(O)OCCN)OC(=O)CC/C=C\C/C=C\C/C=C\C/C=C\C/C=C\C/C=C\CC` [PE 22:6_22:6], the “TIMS collisional cross section” value (sample type: Mouse Liver, ion (formula + adduct): [C49H74NO8P-H] 1-) is recorded as 283.9 Å². As to `CC/C=C\C/C=C\C/C=C\C/C=C\C/C=C\CCCC(=O)O[C@H](COCCCCCCCCCCCCCCCC)COP(=O)([O-])OCC[N+](C)(C)C` [PC O- 16:0@_20:5], the “TIMS collisional cross section” value (sample type: Human plasma, ion (formula + adduct): [C44H80NO7P+AcO] 1-) is listed as 298.5 Å². Consider `CCCCC/C=C\C/C=C\C/C=C\C/C=C\CCCC(=O)OC[C@@H](O)COP(=O)([O-])OCC[N+](C)(C)C` [LPC 20:4_0:0], for which the “TIMS collisional cross section” value reads like this: (sample type: Human plasma, ion (formula + adduct): [C28H50NO7P+HCOO] 1-) 243.1 Å²; (sample type: Human plasma, ion (formula + adduct): [C28H50NO7P-CH3] 1-) 225.9 ± 0.85 Å². As for `CCCCCCCCCCCCCCCCCC(=O)OC[C@@H](O)COP(=O)(O)OC[C@H](N)C(=O)O` [LPS 18:0_0:0], under “sample type: Mouse Liver, ion (formula + adduct): [C24H48NO9P-H] 1-”, the “TIMS collisional cross section” value is on record as 227.7 Å². Regarding `CCCCC/C=C\C/C=C\C/C=C\C/C=C\CCCC(=O)OC[C@H](COP(=O)(O)OC[C@H](N)C(=O)O)OC(=O)CCCCCCC/C=C\C/C=C\CCCCC` [PS 20:4_18:2@], the “TIMS collisional cross section” value (sample type: Mouse Liver, ion (formula + adduct): [C44H74NO10P-H] 1-) amounted to 286.4 Å².

`CCCCC/C=C\C/C=C\CCCCCCCC(=O)OC[C@H](COP(=O)(O)OC[C@@H](O)CO)OC(=O)CCCCCCC/C=C\CCCCCCCC` [PG 18:2_18:1]: the “TIMS collisional cross section” value (sample type: Mouse Liver, ion (formula + adduct): [C42H77O10P-H] 1-) was determined as 281.4 Å².

With `CCCCCC/C=C\CCCCCCCC(=O)OC[C@@H](O)COP(=O)(O)O` [LPA 16:1_0:0], the “TIMS collisional cross section” value (sample type: Human plasma, ion (formula + adduct): [C19H37O7P-H] 1-) is listed as 198.2 Å². For `CCCCC/C=C\C/C=C\CCCCCCCC(=O)O[C@H](COCCCCCCCCCCCCCCCC)COP(=O)([O-])OCC[N+](C)(C)C` [PC O- 16:0@_18:2], the “TIMS collisional cross section” value is, setting by setting: (sample type: Human plasma, ion (formula + adduct): [C42H82NO7P+HCOO] 1-) 288.8 Å²; (sample type: Human plasma, ion (formula + adduct): [C42H82NO7P-CH3] 1-) 271.8 Å²; (sample type: Mouse Liver, ion (formula + adduct): [C42H82NO7P+HCOO] 1-) 290 Å².

These data come from the supplement of paper PMC6965134.
